Experimental findings from patent US20260062422A1 (Halda Therapeutics OpCo, Inc., priority 2022, published 2026) are described below.

By GI50 is commonly meant the concentration giving 50% growth inhibition. Low values mean more potent growth inhibition, high ones less potent growth inhibition.

The subject of test [1] is T-Rex 293 cell line SC3 cells having increased expression of androgen receptor protein due to exposure to doxycycline. The test is described as follows: Cellular growth inhibition, T-Rex 293 SC3 cells with doxycycline (androgen receptor induced), CellTiter-Glo. It is filed as cell-based. The settings on record: 72 h, T-Rex 293 SC3 cells with 10 ng/mL doxycycline (increased androgen receptor expression). The gist of the method:
(§1)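 GI50 came from a four-parameter fit of CellTiter-Glo 2.0 luminescence after 72 h compound exposure (0.5% DMSO, 37 °C), dosing 24 h post-seeding. SC3 clone cells (2500/well), transfected with wild-type androgen receptor, grew in charcoal-stripped serum medium lacking phenol red, induced with 10 ng/mL doxycycline or left uninduced.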
Background: ATP-based viability assays read luminescence as a measure of living cells.

Test [2] deals with T-Rex 293 cell line SC3 cells lacking increased expression of androgen receptor protein. The test is described as follows: Cellular growth inhibition, T-Rex 293 SC3 cells without doxycycline, CellTiter-Glo. It is filed as cell-based. The settings on record: 72 h, T-Rex 293 SC3 cells not exposed to doxycycline, CellTiter-Glo 2.0. The gist of the method:
as §1

A further test relates to VCaP cells. The test is described as follows: Cellular growth inhibition assay for VCaP cells, CellTiter-Glo. It is filed as cell-based, human. The settings on record: Homo sapiens, VCaP, 72 h, 72 hours treatment, CellTiter-Glo 2.0. The gist of the method:
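GI50 values come from four-parameter curve fits of luminescence data normalized to a zero baseline. Compound, in medium with 0.5% DMSO, was added one day after plating and left for 72 h before CellTiter-Glo 2.0 addition.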

Take `Cc1sc2c(c1C)C(c1ccc(OC3CC4(C3)CC3(CCN(c5ncc(C(=O)N[C@H]6C(C)(C)[C@H](Oc7ccc(C#N)c(Cl)c7)C6(C)C)cn5)CC3)C4)cc1)=N[C@@H](Cc1ncco1)c1nnc(C)n1-2` [Compound I-283]: the GI50 is below 500 nM in test [1], above 3000 nM in test [2] and below 500 nM in the test with VCaP cells.

On to `Cc1sc2c(c1C)C(c1ccc(Cl)cc1)=N[C@@H](CC(=O)NCCOCCOCCOCCOC1CCN(c3ncc(C(=O)N[C@H]4C(C)(C)[C@H](Oc5ccc(C#N)c(Cl)c5)C4(C)C)cn3)CC1)c1nnc(C)n1-2` [Compound I-11], for which the figures for the GI50 (in test [1]; in test [2]; in the test with VCaP cells) were below 500 nM, 1500 to 3000 nM and below 500 nM, respectively.

`CCNC(=O)C[C@@H]1N=C(c2ccc(OCCCN(C)c3ncc(C(=O)N[C@H]4C(C)(C)[C@H](Oc5ccc(C#N)c(Cl)c5)C4(C)C)cn3)cc2)c2c(sc(C)c2C)-n2c(C)nnc21` [Compound I-81]: the GI50 in test [1] is below 500 nM; in test [2], 500 to 1500 nM; in the test with VCaP cells, below 500 nM.

As for `Cc1sc2c(c1C)C(c1ccc(CCCOC3CCN(c4ncc(C(=O)N[C@H]5C(C)(C)[C@H](Oc6ccc(C#N)c(Cl)c6)C5(C)C)cn4)CC3)cc1)=N[C@@H](Cc1ncco1)c1nnc(C)n1-2` [Compound I-131, N-[3-(3-chloro-4-cyano-phenoxy)-2,2,4,4-tetramethyl-cyclobutyl]-2-[4-[3-[4-[(9S)-4,5,13-trimethyl-9-(oxazol-2-ylmethyl)-3-thia-1,8,11,12-tetrazatricyclo[8.3.0.02,6]trideca-2(6),4,7,10,12-pentaen-7-yl]phenyl]propoxy]-1-piperidyl]pyrimidine-5-carboxamide], the GI50 (in test [1]; in test [2]; in the test with VCaP cells) was below 500 nM each time.

Consider `CCNC(=O)C[C@@H]1N=C(c2ccc(OCCCC#Cc3ncc(C(=O)N[C@H]4C(C)(C)[C@H](Oc5ccc(C#N)c(Cl)c5)C4(C)C)cn3)cc2)c2c(sc(C)c2C)-n2c(C)nnc21` [Compound I-83], for which the concentration for 50% growth inhibition (GI50) in test [1] was below 500 nM; in test [2], 500 to 1500 nM; with VCaP cells it was 500 to 1500 nM.

`Cc1sc2c(c1C)C(c1ccc(Cl)cc1)=N[C@@H](CC(=O)NCCCN1CCN(CCCN(C)c3ncc(C(=O)N[C@H]4C(C)(C)[C@H](Oc5ccc(C#N)c(Cl)c5)C4(C)C)cn3)CC1)c1nnc(C)n1-2` [Compound I-5, N-((1r,3r)-3-(3-chloro-4-cyanophenoxy)-2,2,4,4-tetramethylcyclobutyl)-2-((3-(4-(3-(2-((S)-4-(4-chlorophenyl)-2,3,9-trimethyl-6H-thieno[3,2-f][1,2,4]triazolo[4,3-a][1,4]diazepin-6-yl)acetamido)propyl)piperazin-1-yl)propyl)(methyl)amino)pyrimidine-5-carboxamide]: the GI50 in test [1] is below 500 nM; in test [2] it was above 3000 nM; in the test on VCaP cells it was below 500 nM.

Consider `CCN(C)C(=O)C[C@@H]1N=C(c2ccc(OCCOC3CCN(c4ncc(C(=O)N[C@H]5C(C)(C)[C@H](Oc6ccc(C#N)c(Cl)c6)C5(C)C)cn4)CC3)cc2)c2c(sc(C)c2C)-n2c(C)nnc21` [Compound I-66], for which the GI50 (in test [1]; in test [2]; in the test on VCaP cells) was below 500 nM in each case.

As to `Cc1sc2c(c1C)C(c1ccc(Cl)cc1)=N[C@@H](CC(=O)NCCOCCOCCOCCOCCN(C)c1ncc(C(=O)N[C@H]3C(C)(C)[C@H](Oc4ccc(C#N)c(Cl)c4)C3(C)C)cn1)c1nnc(C)n1-2` [Compound I-3, N-((1r,3r)-3-(3-chloro-4-cyanophenoxy)-2,2,4,4-tetramethylcyclobutyl)-2-((1-((S)-4-(4-chlorophenyl)-2,3,9-trimethyl-6H-thieno[3,2-f][1,2,4]triazolo[4,3-a][1,4]diazepin-6-yl)-2-oxo-6,9,12,15-tetraoxa-3-azaheptadecan-17-yl)(methyl)amino)pyrimidine-5-carboxamide], the GI50 in test [1] was below 500 nM; in test [2] it was above 3000 nM; in the test on VCaP cells it was below 500 nM.

Consider `CCN(C)C(=O)C[C@@H]1N=C(c2ccc(CCCOC3CCN(c4ncc(C(=O)N[C@H]5C(C)(C)[C@H](Oc6ccc(C#N)c(Cl)c6)C5(C)C)cn4)CC3)cc2)c2c(sc(C)c2C)-n2c(C)nnc21` [Compound I-101], for which the GI50 was below 500 nM in test [1], above 3000 nM in test [2] and above 3000 nM in the test with VCaP cells.

With `Cc1sc2c(c1C)C(c1ccc(C[C@H]3C[C@@H]([C@@H]4CCCN(c5ncc(C(=O)N[C@H]6C(C)(C)[C@H](Oc7ccc(C#N)c(Cl)c7)C6(C)C)cn5)C4)C3)cc1)=N[C@@H](Cc1ncco1)c1nnc(C)n1-2` [Compound I-161], the values for the GI50 (in test [1]; in test [2]; with VCaP cells) were below 500 nM, 500 to 1500 nM and below 500 nM, respectively.

Turning to `CCNC(=O)C[C@@H]1N=C(c2ccc(OC3CCN(C4CCN(c5ncc(C(=O)N[C@H]6C(C)(C)[C@H](Oc7ccc(C#N)c(Cl)c7)C6(C)C)cn5)CC4)C3)cc2)c2c(sc(C)c2C)-n2c(C)nnc21` (stereo partly drawn) [Compound I-85], the GI50 in test [1] is below 500 nM; in test [2], above 3000 nM; in the test on VCaP cells it was below 500 nM.

On to `CCNC(=O)C[C@@H]1N=C(c2ccc(N3CC(N(C)C4CN(c5ncc(C(=O)N[C@H]6C(C)(C)[C@H](Oc7ccc(C#N)c(Cl)c7)C6(C)C)cn5)C4)C3)cc2)c2c(sc(C)c2C)-n2c(C)nnc21` [Compound I-121], for which the values for the GI50 (in test [1]; in test [2]; in the test with VCaP cells) were below 500 nM, 500 to 1500 nM and below 500 nM, respectively.

With `Cc1sc2c(c1C)C(c1ccc(Cl)cc1)=N[C@@H](CC(=O)NCCOCCOCCOCCOCCOC1CCN(c3ncc(C(=O)N[C@H]4C(C)(C)[C@H](Oc5ccc(C#N)c(Cl)c5)C4(C)C)cn3)CC1)c1nnc(C)n1-2` [Compound I-8], the GI50 was below 500 nM in test [1], 1500 to 3000 nM in test [2] and below 500 nM with VCaP cells.

As for `CCNC(=O)C[C@@H]1N=C(c2ccc(N3CCC(CN4CC(Oc5ncc(C(=O)N[C@H]6C(C)(C)[C@H](Oc7ccc(C#N)c(Cl)c7)C6(C)C)cn5)C4)CC3)cc2)c2c(sc(C)c2C)-n2c(C)nnc21` [Compound I-124], the GI50 is below 500 nM in test [1], 1500 to 3000 nM in test [2] and 500 to 1500 nM with VCaP cells.

With `CCNC(=O)C[C@@H]1N=C(c2ccc(OCCOC3CCN(c4ncc(C(=O)N[C@H]5C(C)(C)[C@H](Oc6ccc(C#N)c(Cl)c6)C5(C)C)cn4)CC3)c(F)c2F)c2c(sc(C)c2C)-n2c(C)nnc21` [Compound I-73], the GI50 in test [1] is below 500 nM; in test [2], 500 to 1500 nM; in the test on VCaP cells it was below 500 nM.

Regarding `Cc1sc2c(c1C)C(c1ccc(Cl)cc1)=N[C@H](CC(=O)NCCOCCOCCOCCOC1CCN(c3ncc(C(=O)N[C@H]4C(C)(C)[C@H](Oc5ccc(C#N)c(Cl)c5)C4(C)C)cn3)CC1)c1nnc(C)n1-2` [Compound I-13], the GI50 (in test [1]; in test [2]; in the test with VCaP cells) was above 3000 nM in each case.

`Cc1sc2c(c1C)C(c1ccc(OC3CC4(CCN(c5ncc(C(=O)N[C@H]6C(C)(C)[C@H](Oc7ccc(C#N)c(Cl)c7)C6(C)C)cn5)CC4)C3)cc1)=NC(Cc1ncco1)c1nnc(C)n1-2` (stereo partly drawn) [Compound I-166]: the GI50 in test [1] is below 500 nM; in test [2], 500 to 1500 nM; in the test with VCaP cells it was below 500 nM.

For the compound `Cc1sc2c(c1C)C(c1ccc(Cl)cc1)=N[C@@H](CC(=O)NCCOCCOCCOC1CCN(c3ncc(C(=O)N[C@H]4C(C)(C)[C@H](Oc5ccc(C#N)c(Cl)c5)C4(C)C)cn3)CC1)c1nnc(C)n1-2` [Compound I-7], the GI50 was below 500 nM in test [1], 500 to 1500 nM in test [2] and below 500 nM in the test on VCaP cells.

As for `Cc1sc2c(c1C)C(c1ccc(N3CC(C4CCN(c5ncc(C(=O)N[C@H]6C(C)(C)[C@H](Oc7ccc(C#N)c(Cl)c7)C6(C)C)cn5)CC4)C3)cc1)=NC(Cc1ncco1)c1nnc(C)n1-2` (stereo partly drawn) [Compound I-209], the GI50 was below 500 nM in test [1], above 3000 nM in test [2] and below 500 nM in the test on VCaP cells.

As to `Cc1sc2c(c1C)C(c1ccc(Cl)cc1)=N[C@H](CC(=O)NCCOCCOCCOCCOCCN(C)c1ncc(C(=O)N[C@H]3C(C)(C)[C@H](Oc4ccc(C#N)c(Cl)c4)C3(C)C)cn1)c1nnc(C)n1-2` [Compound I-19], the GI50 (in test [1]; in test [2]; in the test on VCaP cells) was above 3000 nM in each case.

On to `Cc1sc2c(c1C)C(c1ccc(Cl)cc1)=N[C@H](CC(=O)NCCOCCOCCOCCOCCOC1CCN(c3ncc(C(=O)N[C@H]4C(C)(C)[C@H](Oc5ccc(C#N)c(Cl)c5)C4(C)C)cn3)CC1)c1nnc(C)n1-2` [Compound I-14], for which the GI50 (in test [1]; in test [2]; in the test with VCaP cells) was above 3000 nM each time.

Consider `Cc1sc2c(c1C)C(c1cccc(OCCOC3CCN(c4ncc(C(=O)N[C@H]5C(C)(C)[C@H](Oc6ccc(C#N)c(Cl)c6)C5(C)C)cn4)CC3)c1)=N[C@@H](CC(=O)O)c1nnc(C)n1-2` [Compound I-41], for which the GI50 is 500 to 1500 nM in test [1], above 3000 nM in test [2] and above 3000 nM with VCaP cells.

As to `Cc1sc2c(c1C)C(c1ccc(OC3CN(CC4CCN(c5ncc(C(=O)N[C@H]6C(C)(C)[C@H](Oc7ccc(C#N)c(Cl)c7)C6(C)C)cn5)CC4)C3)cc1)=N[C@H](Cc1ncco1)c1nnc(C)n1-2` [Compound I-169], the GI50 in test [1] is below 500 nM; in test [2], above 3000 nM; with VCaP cells, below 500 nM.

In the case of `CCNC(=O)C[C@@H]1N=C(c2ccc(N3CCC(OC4CCN(c5ncc(C(=O)N[C@H]6C(C)(C)[C@H](Oc7ccc(C#N)c(Cl)c7)C6(C)C)cn5)CC4)CC3)cc2)c2c(sc(C)c2C)-n2c(C)nnc21` [Compound I-114], the concentration for 50% growth inhibition (GI50) in test [1] is below 500 nM; in test [2], 500 to 1500 nM; in the test with VCaP cells, below 500 nM.
